US20210070748A1, “INHIBITORS OF BRUTONS TYROSINE KINASE” (Pharmacyclics LLC, priority 2015, published 2021)

Columns and labels:
Assay type in all cases: biochemical
EGFR = EGFR (Homo sapiens, UniProt P00533); assay: Inhibition of a panel of kinases, in vitro HotSpot kinase assay: EGFR; conditions: Table 13, A compounds; 1 μM ATP
Description: (§1) The degree of inhibition of a panel of kinases is determined using the in vitro HotSpot kinase assay (purified enzymes, ^33P-ATP, an appropriate substrate and 1 μM ATP).

LCK = LCK (Homo sapiens, UniProt P06239); assay: Inhibition of a panel of kinases, in vitro HotSpot kinase assay: LCK; conditions: Table 13, A compounds; 1 μM ATP; read-out: IC50 LCK
BTK-WT = target: T1, BTK-WT (Homo sapiens, UniProt Q06187); assay: Btk in vitro inhibitory activity (one of Method A TR-FRET, Method B electrophoretic mobility shift, Method C radiometric filter binding); conditions: Table 13, A compounds; read-out: IC50 BTK-WT
T1 construct: purified from insect cells as a full-length construct containing an N-terminal 6X-His tag; His6 (N); made in house; host or cells: insect cells (baculovirus Sf21 in Method B)

SRC = SRC (Homo sapiens, UniProt P12931); assay: Inhibition of a panel of kinases, in vitro HotSpot kinase assay: SRC; conditions: Table 13, A compounds; 1 μM ATP
Description: as §1

JAK3 = target: T2, JAK3 (Homo sapiens, UniProt P52333); assay: Inhibition of a panel of kinases, in vitro HotSpot kinase assay: JAK3; conditions: Table 13, A compounds; 1 μM ATP; read-out: IC50 JAK3
T2 sequence (P52333 1-1124): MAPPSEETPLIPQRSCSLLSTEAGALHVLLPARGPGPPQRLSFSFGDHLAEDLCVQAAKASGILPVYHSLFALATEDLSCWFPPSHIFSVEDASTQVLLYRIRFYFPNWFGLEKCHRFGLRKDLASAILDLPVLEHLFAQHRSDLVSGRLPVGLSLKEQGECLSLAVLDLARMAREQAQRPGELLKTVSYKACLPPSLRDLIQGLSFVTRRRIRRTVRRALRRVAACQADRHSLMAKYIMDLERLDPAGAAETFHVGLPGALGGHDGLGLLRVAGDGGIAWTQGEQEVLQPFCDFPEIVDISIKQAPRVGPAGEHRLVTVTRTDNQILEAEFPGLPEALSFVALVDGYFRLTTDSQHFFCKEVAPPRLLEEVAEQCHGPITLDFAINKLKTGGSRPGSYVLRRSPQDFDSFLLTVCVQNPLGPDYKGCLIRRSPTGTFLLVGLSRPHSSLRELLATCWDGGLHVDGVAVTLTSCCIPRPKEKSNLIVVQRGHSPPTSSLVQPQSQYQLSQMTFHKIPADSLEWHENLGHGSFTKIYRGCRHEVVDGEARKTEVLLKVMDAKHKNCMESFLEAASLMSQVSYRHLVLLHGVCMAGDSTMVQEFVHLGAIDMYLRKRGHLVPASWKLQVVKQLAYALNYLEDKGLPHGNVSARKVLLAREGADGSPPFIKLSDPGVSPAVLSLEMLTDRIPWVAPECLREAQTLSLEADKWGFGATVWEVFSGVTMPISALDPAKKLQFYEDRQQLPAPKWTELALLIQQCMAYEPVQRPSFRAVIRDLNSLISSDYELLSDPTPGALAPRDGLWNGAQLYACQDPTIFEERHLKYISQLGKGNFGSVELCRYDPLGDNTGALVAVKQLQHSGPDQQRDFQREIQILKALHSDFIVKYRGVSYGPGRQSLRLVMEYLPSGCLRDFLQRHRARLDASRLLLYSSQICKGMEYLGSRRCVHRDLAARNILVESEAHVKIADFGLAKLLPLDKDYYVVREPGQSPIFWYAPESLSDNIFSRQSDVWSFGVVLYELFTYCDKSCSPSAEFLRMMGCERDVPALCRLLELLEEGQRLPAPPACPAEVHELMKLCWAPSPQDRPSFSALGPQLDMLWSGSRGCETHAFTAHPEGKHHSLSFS

Chain of EGFR (P00533 25-1210): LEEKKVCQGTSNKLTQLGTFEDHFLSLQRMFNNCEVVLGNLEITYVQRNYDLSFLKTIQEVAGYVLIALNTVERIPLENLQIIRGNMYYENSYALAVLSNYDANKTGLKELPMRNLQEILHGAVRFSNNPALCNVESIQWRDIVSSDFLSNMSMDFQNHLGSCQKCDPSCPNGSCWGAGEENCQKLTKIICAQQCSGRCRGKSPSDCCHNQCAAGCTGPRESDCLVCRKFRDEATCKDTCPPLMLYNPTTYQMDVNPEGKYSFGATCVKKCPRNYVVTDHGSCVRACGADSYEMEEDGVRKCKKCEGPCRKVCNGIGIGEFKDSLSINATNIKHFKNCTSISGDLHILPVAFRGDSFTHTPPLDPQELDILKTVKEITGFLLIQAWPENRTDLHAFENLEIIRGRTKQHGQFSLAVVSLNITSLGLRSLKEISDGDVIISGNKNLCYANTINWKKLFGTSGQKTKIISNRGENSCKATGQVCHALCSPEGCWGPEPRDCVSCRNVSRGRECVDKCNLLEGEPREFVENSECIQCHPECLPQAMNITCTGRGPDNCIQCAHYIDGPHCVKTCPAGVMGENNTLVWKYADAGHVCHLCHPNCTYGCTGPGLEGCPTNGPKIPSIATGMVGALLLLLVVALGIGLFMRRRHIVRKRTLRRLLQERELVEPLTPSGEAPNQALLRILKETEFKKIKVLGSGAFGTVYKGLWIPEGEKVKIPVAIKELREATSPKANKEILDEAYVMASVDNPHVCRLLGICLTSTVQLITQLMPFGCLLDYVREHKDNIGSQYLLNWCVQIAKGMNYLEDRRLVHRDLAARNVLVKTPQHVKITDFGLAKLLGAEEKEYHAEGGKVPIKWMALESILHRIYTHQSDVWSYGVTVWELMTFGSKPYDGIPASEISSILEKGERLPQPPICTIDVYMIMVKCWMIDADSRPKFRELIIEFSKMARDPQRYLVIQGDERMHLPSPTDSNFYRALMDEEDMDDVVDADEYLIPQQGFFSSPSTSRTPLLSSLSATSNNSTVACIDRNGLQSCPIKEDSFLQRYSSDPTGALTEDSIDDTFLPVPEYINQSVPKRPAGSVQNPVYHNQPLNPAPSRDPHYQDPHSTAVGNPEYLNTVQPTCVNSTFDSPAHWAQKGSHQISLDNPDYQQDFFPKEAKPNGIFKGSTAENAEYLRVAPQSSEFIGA
T1 sequence (Q06187 whole entry): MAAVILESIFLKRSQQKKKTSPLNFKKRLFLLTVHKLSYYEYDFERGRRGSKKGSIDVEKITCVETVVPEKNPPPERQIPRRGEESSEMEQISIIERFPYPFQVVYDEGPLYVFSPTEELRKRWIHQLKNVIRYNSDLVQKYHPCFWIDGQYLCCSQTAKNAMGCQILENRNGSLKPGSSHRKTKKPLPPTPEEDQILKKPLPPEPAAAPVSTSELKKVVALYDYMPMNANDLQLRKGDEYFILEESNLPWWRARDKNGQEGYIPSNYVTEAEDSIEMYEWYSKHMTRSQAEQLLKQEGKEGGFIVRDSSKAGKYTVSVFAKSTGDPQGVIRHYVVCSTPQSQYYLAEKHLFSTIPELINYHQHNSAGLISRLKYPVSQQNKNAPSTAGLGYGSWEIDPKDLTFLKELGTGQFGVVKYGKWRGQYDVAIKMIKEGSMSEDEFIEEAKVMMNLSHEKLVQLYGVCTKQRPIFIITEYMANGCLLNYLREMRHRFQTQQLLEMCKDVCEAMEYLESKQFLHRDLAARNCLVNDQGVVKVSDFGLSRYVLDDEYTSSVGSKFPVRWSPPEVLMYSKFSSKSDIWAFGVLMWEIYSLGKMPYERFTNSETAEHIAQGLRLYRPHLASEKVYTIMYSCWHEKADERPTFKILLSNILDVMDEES
Chain of LCK (P06239 whole entry): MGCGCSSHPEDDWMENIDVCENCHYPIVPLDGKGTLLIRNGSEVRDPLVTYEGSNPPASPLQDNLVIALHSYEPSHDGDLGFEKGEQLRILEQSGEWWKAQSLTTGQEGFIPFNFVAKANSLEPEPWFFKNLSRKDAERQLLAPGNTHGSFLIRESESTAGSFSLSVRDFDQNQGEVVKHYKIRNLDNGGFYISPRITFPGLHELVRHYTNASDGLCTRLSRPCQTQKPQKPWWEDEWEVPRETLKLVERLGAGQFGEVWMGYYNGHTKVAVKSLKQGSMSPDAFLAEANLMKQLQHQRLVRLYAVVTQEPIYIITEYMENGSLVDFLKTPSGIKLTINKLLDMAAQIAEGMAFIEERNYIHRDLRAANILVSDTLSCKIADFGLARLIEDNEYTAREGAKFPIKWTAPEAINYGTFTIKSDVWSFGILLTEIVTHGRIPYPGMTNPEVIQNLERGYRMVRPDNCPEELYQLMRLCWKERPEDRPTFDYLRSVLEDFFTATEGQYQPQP
Chain of SRC (P12931 whole entry): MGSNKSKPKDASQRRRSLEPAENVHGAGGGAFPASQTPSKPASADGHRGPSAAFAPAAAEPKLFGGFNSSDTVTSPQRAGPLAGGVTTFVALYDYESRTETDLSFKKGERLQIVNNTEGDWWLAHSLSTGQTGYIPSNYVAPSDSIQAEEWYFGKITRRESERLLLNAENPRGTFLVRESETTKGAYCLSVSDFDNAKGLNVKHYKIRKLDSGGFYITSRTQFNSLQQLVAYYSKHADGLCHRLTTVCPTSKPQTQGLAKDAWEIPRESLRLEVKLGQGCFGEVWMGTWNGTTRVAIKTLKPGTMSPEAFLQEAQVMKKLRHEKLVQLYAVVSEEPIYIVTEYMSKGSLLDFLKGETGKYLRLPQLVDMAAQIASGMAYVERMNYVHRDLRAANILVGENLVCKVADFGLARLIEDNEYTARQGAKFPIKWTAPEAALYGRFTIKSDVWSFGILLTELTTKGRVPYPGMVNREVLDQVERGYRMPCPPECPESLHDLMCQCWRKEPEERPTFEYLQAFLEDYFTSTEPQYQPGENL

Row | Structure (SMILES) | IC50 (EGFR) [nM] | IC50 (LCK) [nM] | IC50 (BTK-WT) [nM] | IC50 (SRC) [nM] | IC50 (JAK3) [nM]
1 | C[C@@H]1[C@H](NC(=O)c2ccc(C3CC3)cc2F)CCCN1c1cnc(C(N)=O)c(Nc2cnn(C)c2)c1 [Example A-127, 5-[(2R,3R)-3-(4-cyclopropyl-2-fluorobenzamido)-2-methylpiperidin-1-yl]-3-[(1-methyl-1H-pyrazol-4-yl)amino]pyridine-2-carboxamide] | 1000 to 10000 | 100 to 1000 | 10 to 100 | 100 to 1000 | 1000 to 10000
2 | CC1(c2ccc(Nc3nc(N4CCC[C@@H](n5ccc6cc(C7CC7)ccc6c5=O)C4)cnc3C(N)=O)cc2)CCN(C2CCCC2)CC1 [Example A-141, 3-{[4-(1-cyclopentyl-4-methylpiperidin-4-yl)phenyl]amino}-5-[(3R)-3-(6-cyclopropyl-1-oxo-1,2-dihydroisoquinolin-2-yl)piperidin-1-yl]pyrazine-2-carboxamide] | 100 to 1000 | 10 to 100 | ≤ 10 | 10 to 100 | 100 to 1000
3 | C[C@@H]1[C@H](NC(=O)c2ccc(C3CC3)cc2F)CCCN1c1cnc(C(N)=O)c(Nc2ccc(S(=O)(=O)N3CCN(C)CC3)cc2)n1 [Example A-156, 5-[(2R,3R)-3-(4-cyclopropyl-2-fluorobenzamido)-2-methylpiperidin-1-yl]-3-({4-[(4-methylpiperazin-1-yl)sulfonyl]phenyl}amino)pyr-azine-2-carboxamide] | 1000 to 10000 | 1000 to 10000 | ≤ 10 | 100 to 1000 | > 10000
4 | Cn1cc(Nc2nc(N3CCC[C@@H](n4ccc5cc(C6CC6)ccc5c4=O)C3)cnc2C(N)=O)cn1 [Example A-167, 5-[(3R)-3-(6-cyclopropyl-1-oxo-1,2-dihydroisoquinolin-2-yl)piperidin-1-yl]-3-[(1-methyl-1H-pyrazol-4-yl)amino]pyrazine-2-carboxamide] | > 10000 | 1000 to 10000 | ≤ 10 | 1000 to 10000 | > 10000
5 | C[C@@H]1[C@H](NC(=O)c2ccc(C3CC3)cc2)CCCN1c1cnc(C(N)=O)c(Nc2cnn(C)c2)n1 [Example A-169, 5-[(2R,3R)-3-(4-cyclopropylbenzamido)-2-methylpiperidin-1-yl]-3-[(1-methyl-1H-pyrazol-4-yl)amino]pyrazine-2-carboxamide] | 1000 to 10000 | 100 to 1000 | ≤ 10 | 100 to 1000 | 1000 to 10000
6 | C[C@@H]1[C@H](NC(=O)c2ccc(C3CC3)cc2)CCCN1c1cnc(C(N)=O)c(Nc2cnn(C3CCN(C)CC3)c2)n1 [Example A-173] | 100 to 1000 | 10 to 100 | ≤ 10 | 10 to 100 | 1000 to 10000
7 | C[C@@H]1[C@H](NC(=O)c2ccc(C3CC3)cc2F)CCCN1c1cnc(C(N)=O)c(Nc2ccc(C3(C)CCN(C4CC4)CC3)cc2)n1 [Example A-174, 5-[(2R,3R)-3-(4-cyclopropyl-2-fluorobenzamido)-2-methylpiperidin-1-yl]-3-{[4-(1-cyclopropyl-4-methylpiperidin-4-yl)phenyl]amino}pyrazine-2-carboxamide] | 100 to 1000 | 10 to 100 | ≤ 10 | 100 to 1000 | 10 to 100
8 | C[C@@H]1[C@H](NC(=O)c2ccc(C3CC3)cc2F)CCCN1c1cnc(C(N)=O)c(Nc2ccc(S(=O)(=O)N3CCCC3)cc2)n1 [Example A-175, 5-[(2R,3R)-3-(4-cyclopropyl-2-fluorobenzamido)-2-methylpiperidin-1-yl]-3-{[4-(pyrrolidine-1-sulfonyl)phenyl]amino}pyr-azine-2-carboxamide] | 1000 to 10000 | > 10000 | ≤ 10 | > 10000 | > 10000
9 | C[C@@H]1[C@H](NC(=O)c2ccc(C3CC3)cc2F)CCCN1c1cnc(C(N)=O)c(Nc2ccc(N3CCN(C)C[C@@H]3C)cc2)n1 [Example A-176, 5-[(2R,3R)-3-(4-cyclopropyl-2-fluorobenzamido)-2-methylpiperidin-1-yl]-3-({4-[(2S)-2,4-dimethylpiperazin-1-yl]phenyl}amino)pyrazine-2-carboxamide] | 100 to 1000 | 10 to 100 | ≤ 10 | 100 to 1000 | 100 to 1000

Next, values leading:

Row | IC50 (EGFR) [nM] | IC50 (LCK) [nM] | IC50 (BTK-WT) [nM] | IC50 (SRC) [nM] | IC50 (JAK3) [nM] | Structure (SMILES)
10 | 100 to 1000 | 100 to 1000 | ≤ 10 | 10 to 100 | 100 to 1000 | C[C@@H]1[C@H](NC(=O)c2ccc(C3CC3)cc2F)CCCN1c1cnc(C(N)=O)c(Nc2ccc(N3CCN(C4CCCC4)CC3)cc2)n1 [Example A-125, 3-{[4-(4-cyclopentylpiperazin-1-yl)phenyl]amino}-5-[(2R,3R)-3-(4-cyclopropyl-2-fluorobenzamido)-2-methylpiperidin-1-yl]pyrazine-2-carboxamide]
11 | 100 to 1000 | 10 to 100 | ≤ 10 | 10 to 100 | 100 to 1000 | C[C@@H]1[C@H](NC(=O)c2ccc(C3CC3)cc2F)CCCN1c1cnc(C(N)=O)c(Nc2cc(CN3CCOCC3)ns2)n1 [Example A-128, 5-[(2R,3R)-3-(4-cyclopropyl-2-fluorobenzamido)-2-methylpiperidin-1-yl]-3-{[3-(morpholin-4-ylmethyl)-1,2-thiazol-5-yl]amino}pyrazine-2-carboxamide]
12 | 100 to 1000 | 100 to 1000 | ≤ 10 | 10 to 100 | 100 to 1000 | CN1CCN(c2ccc(Nc3nc(N4CCC[C@@H](n5ccc6cc(C7CC7)cc(F)c6c5=O)C4)cnc3C(N)=O)cc2)CC1 [Example A-133, 5-[(3R)-3-(6-cyclo-propyl-8-fluoro-1-oxo-1,2-dihydroisoquinolin-2-yl)piperidin-1-yl]-3-{[4-(4-methylpiperazin-1-yl)phenyl]amino}pyrazine-2-carboxamide]
13 | 100 to 1000 | 10 to 100 | ≤ 10 | 10 to 100 | 1000 to 10000 | C[C@@H]1[C@H](n2ccc3cc(C4CC4)ccc3c2=O)CCCN1c1cnc(C(N)=O)c(Nc2ccc(N3CCN(C)CC3)cc2)n1 [Example A-140, 5-[(2R,3R)-3-(6-cyclopropyl-1-oxo-1,2-dihydro-isoquinolin-2-yl)-2-methylpiperidin-1-yl]-3-{[4-(4-methylpiperazin-1-yl)phenyl]amino}pyrazine-2-carboxamide]
14 | 100 to 1000 | 10 to 100 | ≤ 10 | 10 to 100 | 1000 to 10000 | CC(C)N1CCN(c2ccc(Nc3nc(N4CCC[C@@H](NC(=O)c5ccc(C6CC6)cc5F)[C@H]4C)cnc3C(N)=O)cc2)CC1 [Example A-149, 5-[(2R,3R)-3-(4-cyclopropyl-2-fluorobenzamido)-2-methylpiperidin-1-yl]-3-({4-[4-(propan-2-yl)piperazin-1-yl]phenyl}amino)pyrazine-2-carboxamide]
15 | 100 to 1000 | 10 to 100 | ≤ 10 | 10 to 100 | 1000 to 10000 | C[C@@H]1[C@H](NC(=O)c2ccc(C3CC3)cc2)CCCN1c1cnc(C(N)=O)c(Nc2ccc(N3CCN(C)CC3)cc2)n1 [Example A-170, 5-[(2R,3R)-3-(4-cyclopropylbenzamido)-2-methylpiperidin-1-yl]-3-{[4-(4-methylpiperazin-1-yl)phenyl]amino}pyrazine-2-carboxamide]
16 | 100 to 1000 | 10 to 100 | ≤ 10 | 10 to 100 | 1000 to 10000 | C[C@@H]1[C@H](NC(=O)c2ccc(C3CC3)cc2F)CCCN1c1cnc(C(N)=O)c(Nc2ccc(N3CCN(C)CC3)c(F)c2)n1 [Example A-171, 5-[(2R,3R)-3-(4-cyclopropyl-2-fluorobenzamido)-2-methylpiperidin-1-yl]-3-{[3-fluoro-4-(4-methylpiperazin-1-yl)phenyl]amino}pyrazine-2-carboxamide]
